Measured values as given in patent publication US7388006B2, “Non-steroidal progesting” (Bayer Schering Pharma AG, priority 2002, dated 2008).

Assays:
rabbit endometrium = experiment: Endometrial transformation in rabbit (Clauberg test, McPhail index); assay type: in vivo
Experimental: The test is performed in juvenile female rabbits (New Zealand white, 30 to 35 days old; obtained from Schriever, Germany). From days 1 to 4, all rabbits are primed with […] (s.c., 0.5 ml/kg/day) in order to induce proliferation of the endometrium. From days 7 to 10, the test compound is applied orally (p.o., 0.5 ml/kg/day) at doses of 0.001, 0.01 and 0.1 mg/kg/day. A group which receives only vehicle after estradiol priming serves as a negative control. A second group which receives only progesterone in order to induce endometrial differentiation after estradiol priming is used as a positive control. In order to study the progestagenic activity of ((+)-1), which is the most preferred compound according to the present invention, one treatment group-receives only the compound ((+)-1) after estradiol priming.
Autopsy is performed on […]. As a parameter for progestagenic activity, the McPhail index (i.e., the degree of differentiation) is determined by means of light microscopy (scores: 1 to 4; 1=no glandular differentiation, 4=maximal differentiation).

thymus weight = experiment: Glucocorticoid/anti-glucocorticoid activity in vivo (changes in thymus weight)
[1] = target: T1, mineralocorticoid receptor (MR) (Homo sapiens, UniProt P08235); experiment: Binding to the mineralocorticoid receptor in vitro
T1 sequence (P08235 1-984): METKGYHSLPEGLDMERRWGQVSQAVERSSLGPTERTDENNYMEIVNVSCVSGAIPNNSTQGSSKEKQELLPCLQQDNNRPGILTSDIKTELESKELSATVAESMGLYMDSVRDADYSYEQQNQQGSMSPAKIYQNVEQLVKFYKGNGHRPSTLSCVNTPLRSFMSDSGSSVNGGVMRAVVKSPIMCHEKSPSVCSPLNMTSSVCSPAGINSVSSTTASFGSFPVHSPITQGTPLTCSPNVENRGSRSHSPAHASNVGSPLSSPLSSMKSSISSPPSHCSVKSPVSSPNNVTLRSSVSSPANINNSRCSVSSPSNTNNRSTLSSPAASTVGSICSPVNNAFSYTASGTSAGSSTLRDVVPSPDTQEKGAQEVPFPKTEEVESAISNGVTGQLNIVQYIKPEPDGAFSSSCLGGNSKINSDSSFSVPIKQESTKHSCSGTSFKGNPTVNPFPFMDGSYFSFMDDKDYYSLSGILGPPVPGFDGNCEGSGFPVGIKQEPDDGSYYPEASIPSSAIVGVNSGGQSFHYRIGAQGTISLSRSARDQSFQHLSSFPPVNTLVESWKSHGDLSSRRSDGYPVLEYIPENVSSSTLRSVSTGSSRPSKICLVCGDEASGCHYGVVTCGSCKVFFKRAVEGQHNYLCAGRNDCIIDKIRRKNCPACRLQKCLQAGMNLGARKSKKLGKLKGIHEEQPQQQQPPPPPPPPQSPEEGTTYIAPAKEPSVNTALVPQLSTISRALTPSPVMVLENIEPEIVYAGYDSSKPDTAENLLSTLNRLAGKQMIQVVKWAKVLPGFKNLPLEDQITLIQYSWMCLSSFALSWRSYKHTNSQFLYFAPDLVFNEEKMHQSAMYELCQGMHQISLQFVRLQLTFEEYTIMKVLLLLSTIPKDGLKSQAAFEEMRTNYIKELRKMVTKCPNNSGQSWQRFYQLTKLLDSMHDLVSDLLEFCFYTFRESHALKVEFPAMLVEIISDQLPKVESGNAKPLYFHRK

[2] = target: T2, glucocorticoid receptor (GR) (Homo sapiens, UniProt P04150); experiment: Affinity for the glucocorticoid receptor; assay type: binding
T2 sequence (P04150 1-777): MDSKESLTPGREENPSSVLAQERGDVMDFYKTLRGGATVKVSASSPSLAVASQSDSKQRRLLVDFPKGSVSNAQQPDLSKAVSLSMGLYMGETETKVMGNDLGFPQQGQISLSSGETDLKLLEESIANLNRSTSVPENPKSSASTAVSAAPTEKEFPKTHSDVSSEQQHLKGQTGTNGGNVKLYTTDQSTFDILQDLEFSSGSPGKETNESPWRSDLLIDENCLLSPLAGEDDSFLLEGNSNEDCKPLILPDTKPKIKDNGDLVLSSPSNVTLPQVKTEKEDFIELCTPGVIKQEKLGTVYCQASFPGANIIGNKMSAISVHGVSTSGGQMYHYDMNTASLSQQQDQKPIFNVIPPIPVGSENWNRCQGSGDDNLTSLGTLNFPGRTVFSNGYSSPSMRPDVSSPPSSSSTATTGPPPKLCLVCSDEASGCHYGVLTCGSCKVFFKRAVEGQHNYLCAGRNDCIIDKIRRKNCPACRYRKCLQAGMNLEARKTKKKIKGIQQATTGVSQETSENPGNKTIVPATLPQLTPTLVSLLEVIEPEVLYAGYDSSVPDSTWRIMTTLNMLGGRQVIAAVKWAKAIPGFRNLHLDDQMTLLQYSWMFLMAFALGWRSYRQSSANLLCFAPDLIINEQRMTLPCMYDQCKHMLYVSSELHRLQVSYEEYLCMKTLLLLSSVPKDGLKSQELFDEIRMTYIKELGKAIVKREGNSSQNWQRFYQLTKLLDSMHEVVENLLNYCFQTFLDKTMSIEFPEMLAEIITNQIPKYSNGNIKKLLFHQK

`O=C1OCc2cc(NC(=O)C(O)(CC3(c4cc(C(F)(F)F)ccc4F)CC3)C(F)(F)F)ccc21` (single isomer, unassigned; (+)) [((+)-1), (+)-5-{2-hydroxy-3-[1-(2-fluoro-5-trifluoromethylphenyl)-cyclopropyl]-2-trifluoromethyl-propionylamino}-phthalide] was tested, and the “Potency upon subcutaneous versus oral application, in words” value (rabbit endometrium; Clauberg test, rabbit) was “identical potency”, the “Threshold Value (endometrial transformation)” value (rabbit endometrium; oral (p.o.)) was 0.001 to 0.01 mg/kg and the “Glucocorticoid and anti-glucocorticoid activity in vivo” value (thymus weight) was “does not seem to exhibit any glucocorticoid or any anti-glucocorticoid activity in vivo”. For the same compound, the “Affinity for the mineralocorticoid receptor (MR)” value [1] was “negligible affinity” and the “Affinity for the glucocorticoid receptor (GR)” value [2] was “very high affinity”.
